# Source: ChEMBL document CHEMBL4715709, “Synthesis and evaluation of anticonvulsant properties of new N-Mannich bases derived from 3-(1-phenylethyl)- and 3-benzyl-pyrrolidine-2,5-dione” (Bioorg Med Chem Lett, 2016)
# Activity calls are given as the source filed them. No cut-off for these calls is given here.
# Key:
# Mus musculus [1] = test: Anticonvulsant activity in mouse assessed as protection against ScPTZ-induced epilepsy at 300 mg/kg, ip measured after 4 hrs by subcutaneous pentylenetetrazole test; assay type: functional, organism-based
# Mus musculus [2] = test: Anticonvulsant activity in mouse assessed as protection against tonic-clonic seizures at 300 mg/kg, ip measured after 0.5 hrs by maximal electroshock seizure test; assay type: functional, organism-based
# [3] = Neurotoxicity in mouse assessed as induction of motor impairment at 300 mg/kg, ip measured after 4 hrs by rotarod test; assay type: toxicity, organism-based; conditions: in vivo
# Mus musculus [4] = test: Anticonvulsant activity in mouse assessed as protection against ScPTZ-induced epilepsy at 300 mg/kg, ip measured after 0.5 hrs by subcutaneous pentylenetetrazole test; assay type: functional, organism-based
# Mus musculus [5] = test: Anticonvulsant activity in mouse assessed as protection against tonic-clonic seizures at 300 mg/kg, ip measured after 4 hrs by maximal electroshock seizure test; assay type: functional, organism-based
# [6] = Neurotoxicity in mouse assessed as induction of motor impairment at 300 mg/kg, ip measured after 0.5 hrs by rotarod test; assay type: toxicity, organism-based; conditions: in vivo
# Mus musculus [7] = test: Anticonvulsant activity in ip dosed mouse assessed as minimum dose required for protection against ScPTZ-induced epilepsy measured after 4 hrs by subcutaneous pentylenetetrazole test; assay type: functional
# Mus musculus [8] = test: Anticonvulsant activity in ip dosed mouse assessed as minimum dose required for protection against tonic-clonic seizures measured after 4 hrs by maximal electroshock seizure test; assay type: functional
# [9] = Protection index, ratio of TD50 for neurotoxicity in ip dosed mouse to ED50 for anticonvulsant activity in ip dosed mouse measured after 0.5 hrs by 6 Hz limbic seizure test; assay type: toxicity, organism-based; conditions: in vivo, read-out: PI
# Mus musculus [10] = test: Anti-convulsant activity in mouse assessed as protection of animals against psychomotor seizures at 100 mg/kg, ip measured after 4 hrs by 6 Hz limbic seizure test; assay type: functional
# Mus musculus [11] = test: Anti-convulsant activity in mouse assessed as protection of animals against psychomotor seizures at 100 mg/kg, ip measured after 0.5 hrs by 6 Hz limbic seizure test; assay type: functional
# [12] = Neurotoxicity activity in ip dosed mouse assessed as induction of motor impairment by rotarod test; assay type: toxicity, organism-based; conditions: in vivo
# Mus musculus [13] = test: Anticonvulsant activity in ip dosed mouse assessed as minimum dose required for protection against tonic-clonic seizures measured after 0.5 hrs by maximal electroshock seizure test; assay type: functional
# [14] = Neurotoxicity in ip dosed mouse assessed as minimum dose required for induction of motor impairment measured after 0.5 hrs by rotarod test; assay type: toxicity, organism-based; conditions: in vivo
# Mus musculus [15] = test: Anti-convulsant activity in ip dosed mouse assessed as protection against psychomotor seizures measured after 0.5 hrs by 6 Hz limbic seizure test; assay type: functional
# Mus musculus [16] = test: Anticonvulsant activity in ip dosed mouse assessed as minimum dose required for protection against ScPTZ-induced epilepsy measured after 0.5 hrs by subcutaneous pentylenetetrazole test; assay type: functional
SMILES,Activity (Mus musculus [1]),Activity (Mus musculus [2]),Activity [3],Activity (Mus musculus [4]),Activity (Mus musculus [5]),Activity [6],MED=>50 (Mus musculus [7]) [mg/kg],MED=>50 (Mus musculus [8]) [mg/kg],selectivity ratio at 0.5 h [9],Activity (Mus musculus [10]) [%],Activity (Mus musculus [11]) [%],TD50 [12] [mg/kg],minimum effective dose (Mus musculus [13]) [mg/kg],MTD50 [14] [mg/kg],ED50 (Mus musculus [15]) [mg/kg],MED=>50 (Mus musculus [16]) [mg/kg]
COc1cccc(N2CCN(CN3C(=O)CC(C(C)c4ccccc4)C3=O)CC2)c1 (stereo not drawn),inactive,inactive,Non-Toxic,inactive,inactive,Non-Toxic,–,–,–,–,–,–,–,–,–,–
CC(c1ccccc1)C1CC(=O)N(CN2CCN(c3cccc(Cl)c3Cl)CC2)C1=O (stereo not drawn),inactive,inactive,Non-Toxic,inactive,inactive,Non-Toxic,–,–,–,–,–,–,–,–,–,–
CC(c1ccccc1)C1CC(=O)N(CN2CCN(c3ccc(Cl)c(Cl)c3)CC2)C1=O (stereo not drawn),inactive,inactive,Non-Toxic,inactive,inactive,Non-Toxic,–,–,–,–,–,–,–,–,–,–
O=C1CC(Cc2ccccc2)C(=O)N1CN1CCC(Cc2ccccc2)CC1 (stereo not drawn),inactive,inactive,Non-Toxic,inactive,inactive,Non-Toxic,–,–,–,–,–,–,–,–,–,–
CC(c1ccccc1)C1CC(=O)N(CN2CCN(c3ccccc3)CC2)C1=O (stereo not drawn),inactive,inactive,Non-Toxic,inactive,inactive,Non-Toxic,–,–,–,–,–,–,–,–,–,–
CC(c1ccccc1)C1CC(=O)N(CN2CCN(c3ccccc3Cl)CC2)C1=O (stereo not drawn),inactive,inactive,Non-Toxic,inactive,inactive,Non-Toxic,–,–,–,–,–,–,–,–,–,–
O=C1CC(Cc2ccccc2)C(=O)N1CN1CCN(C2CCCCC2)CC1 (stereo not drawn),inactive,inactive,Non-Toxic,inactive,inactive,Non-Toxic,–,–,–,–,–,–,–,–,–,–
CC(c1ccccc1)C1CC(=O)N(CN2CCN(c3ccccc3F)CC2)C1=O (stereo not drawn),inactive,inactive,Non-Toxic,inactive,inactive,Non-Toxic,–,–,–,–,–,–,–,–,–,–
COc1cccc(N2CCN(CN3C(=O)CC(Cc4ccccc4)C3=O)CC2)c1 (stereo not drawn),inactive,inactive,Non-Toxic,inactive,inactive,Non-Toxic,–,–,–,–,–,–,–,–,–,–
CC(c1ccccc1)C1CC(=O)N(CN2CCN(c3ccc(F)cc3)CC2)C1=O (stereo not drawn),inactive,inactive,Non-Toxic,inactive,inactive,Non-Toxic,–,–,–,–,–,–,–,–,–,–
CC(c1ccccc1)C1CC(=O)N(CN2CCN(Cc3ccccc3)CC2)C1=O (stereo not drawn),inactive,inactive,Non-Toxic,inactive,inactive,Non-Toxic,–,–,–,–,–,–,–,–,–,–
O=C1CC(Cc2ccccc2)C(=O)N1CN1CCN(c2cccc(Cl)c2Cl)CC1 (stereo not drawn),inactive,inactive,Non-Toxic,inactive,inactive,Non-Toxic,–,–,–,–,–,–,–,–,–,–
Cc1ccccc1N1CCN(CN2C(=O)CC(C(C)c3ccccc3)C2=O)CC1 (stereo not drawn),inactive,inactive,Non-Toxic,inactive,inactive,Non-Toxic,–,–,–,–,–,–,–,–,–,–
Cl.O=C1CC(Cc2ccccc2)C(=O)N1CN1CCN(Cc2ccccc2)CC1 (racemic),–,inactive,Non-Toxic,inactive,inactive,Non-Toxic,100,–,–,–,–,–,–,–,–,–
CC(c1ccccc1)C1CC(=O)N(CN2CCC(Cc3ccccc3)CC2)C1=O (racemic),inactive,inactive,Non-Toxic,inactive,–,Non-Toxic,–,300,–,–,–,–,–,–,–,–
CC(c1ccccc1)C1CC(=O)N(CN2CCN(c3cccc(C(F)(F)F)c3)CC2)C1=O (racemic),inactive,inactive,Non-Toxic,inactive,–,Non-Toxic,–,300,–,–,–,–,–,–,–,–

SMILES,Activity (Mus musculus [1]),Activity (Mus musculus [2]),Activity [3],Activity (Mus musculus [4]),Activity (Mus musculus [5]),Activity [6],MED=>50 (Mus musculus [7]) [mg/kg],MED=>50 (Mus musculus [8]) [mg/kg],selectivity ratio at 0.5 h [9],Activity (Mus musculus [10]) [%],Activity (Mus musculus [11]) [%],TD50 [12] [mg/kg],minimum effective dose (Mus musculus [13]) [mg/kg],MTD50 [14] [mg/kg],ED50 (Mus musculus [15]) [mg/kg],MED=>50 (Mus musculus [16]) [mg/kg]
Cc1ccccc1N1CCN(CN2C(=O)CC(Cc3ccccc3)C2=O)CC1 (racemic),inactive,inactive,Non-Toxic,inactive,inactive,Non-Toxic,–,–,–,–,–,–,–,–,–,–
Cl.O=C1CC(Cc2ccccc2)C(=O)N1CN1CCN(CCO)CC1 (racemic),–,–,Non-Toxic,inactive,inactive,–,300,–,4.85,0,100,344,300,300,71,–
O=C1CC(Cc2ccccc2)C(=O)N1CN1CCN(c2ccccc2F)CC1 (racemic),–,inactive,Non-Toxic,inactive,inactive,–,300,–,–,–,–,–,–,300,–,–
CC(c1ccccc1)C1CC(=O)N(CN2CCN(c3ccc(Cl)cc3)CC2)C1=O (racemic),–,inactive,Non-Toxic,–,inactive,Non-Toxic,300,–,–,–,–,–,–,–,–,300
CC(c1ccccc1)C1CC(=O)N(CN2CCN(c3ncccn3)CC2)C1=O (racemic),–,inactive,Non-Toxic,inactive,inactive,–,300,–,–,–,–,–,–,300,–,–
O=C1CC(Cc2ccccc2)C(=O)N1CN1CCN(c2cccc(C(F)(F)F)c2)CC1 (racemic),inactive,–,Non-Toxic,inactive,–,–,–,300,–,–,–,–,300,300,–,–
COc1ccccc1N1CCN(CN2C(=O)CC(Cc3ccccc3)C2=O)CC1 (racemic),inactive,inactive,Non-Toxic,–,inactive,–,–,–,–,–,–,–,–,300,–,100
Cc1cccc(N2CCN(CN3C(=O)CC(Cc4ccccc4)C3=O)CC2)c1 (racemic),–,–,Non-Toxic,inactive,inactive,–,100,–,–,–,–,–,300,300,–,–
O=C1CC(Cc2ccccc2)C(=O)N1CN1CCN(c2ccccc2Cl)CC1 (racemic),–,inactive,Non-Toxic,inactive,inactive,Non-Toxic,100,–,–,–,–,–,–,–,–,–
O=C1CC(Cc2ccccc2)C(=O)N1CN1CCN(c2cccc(Cl)c2)CC1 (racemic),inactive,inactive,Non-Toxic,inactive,inactive,–,–,–,–,–,–,–,–,300,–,–
O=C1CC(Cc2ccccc2)C(=O)N1CN1CCN(c2ccccc2)CC1 (racemic),inactive,inactive,Non-Toxic,inactive,inactive,–,–,–,–,–,–,–,–,300,–,–
CC(c1ccccc1)C1CC(=O)N(CN2CCOCC2)C1=O (racemic),inactive,–,Non-Toxic,inactive,–,–,–,300,–,–,–,–,300,300,–,–
Cc1cccc(N2CCN(CN3C(=O)CC(C(C)c4ccccc4)C3=O)CC2)c1 (racemic),inactive,inactive,Non-Toxic,inactive,inactive,–,–,–,–,–,–,–,–,300,–,–
CC(c1ccccc1)C1CC(=O)N(CN2CCN(c3cccc(Cl)c3)CC2)C1=O (racemic),inactive,inactive,Non-Toxic,inactive,inactive,–,–,–,–,–,–,–,–,300,–,–
COC[C@@H](NC(C)=O)C(=O)NCc1ccccc1 [LACOSAMIDE],–,–,–,–,–,–,–,–,5.66,–,–,–,–,–,6,–
CC[C@@H](C(N)=O)N1CCCC1=O [LEVETIRACETAM],–,–,–,–,–,–,–,–,–,–,–,> 500,–,–,–,–
